According to patent US10383880B2 (Reset Therapeutics, Inc., priority 2012, dated 2019):

What follows are compounds tested on Per2-dLuc U2OS reporter cells (assay: Per2 assay for evaluating the potency of test compounds (high-throughput circadian assay)). Details: Homo sapiens, U2OS, stable U2OS reporter cells harboring Per2-dLuc; luminescence monitored over 4-5 days at 35° C.
Type: cell-based
In short: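 After 24 h culture, U2OS cells carrying Per2-dLuc were serum-shock synchronized into explant medium with 1.0 mM luciferin (10 mM HEPES pH 7.0) and compound in 0.5% DMSO. Luminescence was recorded over 4–5 days at 35 °C. Circadian period, amplitude and phase were derived, and EC50 calculated.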

**Q.** `CS(=O)(=O)N(CC(O)Cn1c2ccccc2c2ccccc21)C1(C(F)(F)F)CC1` (stereo not shown) [Compound 145, N-(3-(9H-Carbazol-9-yl)-2-hydroxypropyl)-N-(1-(trifluoromethyl)cyclopropyl)methanesulfonamide] was tested. Which EC50 did it give?
**A.** 1.35 µM

**Q.** For `O=S1(=O)CCCN1C[C@H](O)Cn1c2ccccc2c2ccccc21` [Compound 40, (R)-N-(3-(9H-Carbazol-9-yl)-2-hydroxypropyl)isothiazolidine 1,1-dioxide], which EC50 is on record?
**A.** 0.179 µM

**Q.** For `CS(=O)(=O)N(CC(O)Cn1c2ccccc2c2ccccc21)C1CCCCC1` (stereo not shown) [Compound 71, N-(3-(9H-Carbazol-9-yl)-2-hydroxypropyl)-N-cyclohexylmethanesulfonamide], which EC50 is on record?
**A.** 3.3 µM

**Q.** For `CS(=O)(=O)N(CC(O)Cn1c2ccccc2c2ccccc21)c1ccc2[nH]ccc2c1` (stereo not shown) [Compound 76, N-(3-(9H-Carbazol-9-yl)-2-hydroxypropyl)-N-(1H-indol-5-yl)methanesulfonamide], which EC50 is on record?
**A.** 2.18 µM
